The structures appear in SMILES notation.

Data set [1] deals with POR-G activators and PORko-R targets (HCT116).
The test system of data set [2] is high-POR 'activator' HCT116 cells in spheroids. Nature of the data set: Spheroid clonogenic assay under anoxia (activators in co-culture spheroids). To be noted: spheroids comprising 100% activators, anoxic exposure 1 h (Figure 9B). Type of data set: cell-based.
Data set [3] deals with POR-null 'target' HCT116 cell lines (PORko-R, PORko-G). The experiment in a line: Monolayer clonogenic assay under anoxia (targets). Type of data set: cell-based. Particulars: monolayer cultures, anoxic exposure 1 h (used for ABM analysis, Figure 9A). The source says: Log-phase cells were trypsinized and cell pellets, collected by centrifugation, were transferred to a Bactron anaerobic chamber (Sheldon Manufacturing Inc., Cornelius, OR, United States) under 3–5% H2/5% CO2/balance N2, <100 ppm O2, with a palladium/activated carbon catalyst to maintain anoxia. (The term “anoxia” is used throughout to refer to the gas phase, without necessarily implying complete anoxia in monolayers or spheroids as discussed below.) Cells were resuspended and seeded at 10^5 cells/0.15 mL in 96-well plates using medium and plates equilibrated in the chamber for 3 days to ensure complete deoxygenation. After incubation at 37 °C for 2 h for cell attachment, cells were exposed to drugs for 1 h, removed from the chamber, trypsinized, counted with a Coulter counter (model Z2; Beckman Coulter^TM, Indianapolis, IN, United States) and plated in 6-well plates. After 10 days, plates were stained with methylene blue (2 g/L in EtOH:H2O, 1:1 v/v) and colonies with more than 50 cells were counted. Plating efficiency (PE) was calculated as number of colonies/number of cells plated, and surviving fraction (SF) was determined as PE(drug treated)/PE(control).

Data set [4] has as its system POR-null 'target' HCT116 cells in spheroids. Type of data set: cell-based.
The test system of a further data set is HCT116 and HCT116/POR#6. To be noted: cited from earlier work.
In data set [5] the test system is high-POR 'activator' HCT116 cell lines (POR-R, POR-G). It is filed as cell-based. To be noted: monolayer cultures.
The nature of data set [6]: Stability in culture medium at 37°C by LC-MS/MS.
The mark [7] stands for this setting: published value, PR104H+M model, ref Foehrenbacher et al., 2013.
The mark [8] stands for this setting: published value, ref Foehrenbacher et al., 2013.

A word on the half-life: it is the time needed for the level to fall by half in the phase considered. Higher therefore signals slow loss. Regarding `CS(=O)(=O)OCCN(CCBr)c1c(C(=O)NCCO)cc([N+](=O)[O-])cc1[N+](=O)[O-]` [PR104A], in data set [1], the “Activator F2, proportion of O2-dependent rate of metabolism of the drug in activators” value is 0.977; the “Activator Kmet,0, rate constant for the maximum rate of metabolism in activator cells under anoxia” value was 2 min⁻¹; the Hill parameter n is 2; the “KO2, O2 concentration for half-maximum prodrug activation” value is given as 0.126. Besides, in data set [1], the “Kc, intrinsic cytotoxic potency” value came out at 0 M⁻¹ s⁻¹; the “Kin, rate constant for transfer from the extracellular to the intracellular compartment” value is 3 min⁻¹; the “Kout, rate constant for transfer from the intracellular to the extracellular compartment” value amounted to 0.5 min⁻¹; the “Target F2, proportion of O2-dependent rate of metabolism of the drug in targets” value was 0.977. For the same compound, in data set [1], the “Target Kmet,0, rate constants for the maximum rate of metabolism in target cells under anoxia” value amounted to 0.03 min⁻¹. For the same compound, the “concentration giving 90% kill in spheroids” value in data set [2] came out at 5 µM. In data set [3], the “PR-104A concentration giving 90% kill” value was 17 µM. For the same compound, the “killing of target cells as proportion of activators increases” value in [4] (co-culture spheroids 0, 10, 50 or 100% activators, 1 h under anoxia) is on record as “markedly increased with increasing proportion of POR-G activator cells”. The bystander effect entry in data set [4] (spheroid co-cultures with ABM simulation, anoxia) was “clearly demonstrated the existence of a bystander effect”. In [4] (spheroids comprising 100% targets, anoxic exposure 1 h (Figure 9B)), the “concentration giving 90% kill in spheroids” value was found to be 20 µM. Also, in the data set on HCT116 and HCT116/POR#6 (37 °C, published value, PR104H+M model, ref Foehrenbacher et al., 2013), the “Half-life, non-enzymatic loss in culture medium” value was 10.2 h. In the data set with HCT116 and HCT116/POR#6 (setting [7]), the “Activator Kmet,0, rate constant for the maximum rate of metabolism in activator cells under anoxia” value was 1.08 min⁻¹; the “Kc, intrinsic cytotoxic potency” value was 0 M⁻¹ s⁻¹; the “Kin, rate constant for transfer from the extracellular to the intracellular compartment” value was 3 min⁻¹; the “Kout, rate constant for transfer from the intracellular to the extracellular compartment” value was 0.5 min⁻¹. For the same compound, the “Target Kmet,0, rate constants for the maximum rate of metabolism in target cells under anoxia” value in the data set with HCT116 and HCT116/POR#6 (setting [7]) is 0.054 min⁻¹. Besides, in the data set with HCT116 and HCT116/POR#6 (setting [8]), the “Activator F2, proportion of O2-dependent rate of metabolism of the drug in activators” value is listed as 0.977; the Hill parameter n was 1; the “Target F2, proportion of O2-dependent rate of metabolism of the drug in targets” value is 0.977. The “KO2, O2 concentration for half-maximum prodrug activation” value in the data set with HCT116 and HCT116/POR#6 (published value, ref Hicks et al., 2007) was 0.126. The “KO2 (sensitivity of PR104A metabolism to oxygen)” value in the data set with HCT116 and HCT116/POR#6 (ref Hicks et al., 2007) is 0.126 µM. Moreover, in [5] (activators, anoxic exposure 1 h (used for ABM analysis, Figure 9A)), the “PR-104A concentration giving 90% kill” value amounted to 1 µM. Moreover, in data set [5] (1 h under anoxia, relative to targets), the “sensitivity of activator cell lines (clonogenic survival)” value is given as “marked increases in the sensitivity”. The compound further had a half-life in “physchem” of 10.2 h.

Take `O=C(NCCO)c1cc(NO)cc([N+](=O)[O-])c1N(CCCl)CCCl` [Metabolite A, 2-(Bis(2-chloroethyl)amino)-5-(hydroxyamino)-N-(2-hydroxyethyl)-3-nitrobenzamide]: the “half-life in culture medium relative to PR104H” value in data set [6] is on record as “fourfold longer half-life”. Further, in the data set on SiHa cells, the “cytotoxic potency relative to PR104H” value is “lower cytotoxic potency”.

These data come from publication PMC6153434, “Bystander Effects of Hypoxia-Activated Prodrugs: Agent-Based Modeling Using Three Dimensional Cell Cultures” (Frontiers in Pharmacology, 2018).
